Experimental data reported in paper PMC10955127 (Frontiers in Pharmacology, 2024).
Like-named read-outs stand apart in the source and are kept apart here.

Legend:
thyroid pathway [1] = system: thyroid pathway; set-up: method as in ToxCast database; conditions: ref ToxCast database; cited from earlier work
in vitro = in vitro ADME
Experimental: […]. Samples were precipitated with an equal volume of acetonitrile containing internal standards (1 μM diazepam, 1 μM griseofulvin, 10 μM diclofenac) and then centrifuged (4800 x g, room temperature, 5 min) before analysis by UHPLC-MS/HRMS.
The amount of compound in the samples was expressed as percentage of remaining compound compared to time point zero (=100%). These percentages were plotted against the corresponding time points. In vitro intrinsic clearance (CLint) and half-life (t1/2) estimates were determined using the rate of precursor disappearance and following formula, based on the well-stirred liver model (Obach 1999):
t1/2 = half-life [min]; k = slope from the linear regression of log [test compound] versus time plot [1/min]
Where CLint = in vitro intrinsic clearance [μl/min/10^6 cells]; t1/2 = half-life [min]; k = slope of the linear regression of log [test compound] versus time plot [1/min]; V = ratio of incubation volume and cell number and fu = unbound fraction in the blood. […]

estrogen receptor [2] = system: estrogen receptor; set-up: method as in ToxCast database; conditions: ref ToxCast database; cited from earlier work
estrogen receptor [3] = system: estrogen receptor; set-up: method as in ToxCast database; conditions: ref ToxCast database; cited from earlier work; remark: listed apart in the source
androgen receptor [4] = system: androgen receptor; set-up: method as in ToxCast database; conditions: ref ToxCast database; cited from earlier work
androgen receptor [5] = system: androgen receptor; set-up: method as in ToxCast database; conditions: ref ToxCast database; cited from earlier work; remark: listed apart in the source
acetylcholinesterase (h) = acetylcholinesterase (h) (Homo sapiens, UniProt P22303); experiment: Pharmacology profiling: acetylcholinesterase; assay type: biochemical
acetylcholinesterase (h), sequence (P22303 32-614): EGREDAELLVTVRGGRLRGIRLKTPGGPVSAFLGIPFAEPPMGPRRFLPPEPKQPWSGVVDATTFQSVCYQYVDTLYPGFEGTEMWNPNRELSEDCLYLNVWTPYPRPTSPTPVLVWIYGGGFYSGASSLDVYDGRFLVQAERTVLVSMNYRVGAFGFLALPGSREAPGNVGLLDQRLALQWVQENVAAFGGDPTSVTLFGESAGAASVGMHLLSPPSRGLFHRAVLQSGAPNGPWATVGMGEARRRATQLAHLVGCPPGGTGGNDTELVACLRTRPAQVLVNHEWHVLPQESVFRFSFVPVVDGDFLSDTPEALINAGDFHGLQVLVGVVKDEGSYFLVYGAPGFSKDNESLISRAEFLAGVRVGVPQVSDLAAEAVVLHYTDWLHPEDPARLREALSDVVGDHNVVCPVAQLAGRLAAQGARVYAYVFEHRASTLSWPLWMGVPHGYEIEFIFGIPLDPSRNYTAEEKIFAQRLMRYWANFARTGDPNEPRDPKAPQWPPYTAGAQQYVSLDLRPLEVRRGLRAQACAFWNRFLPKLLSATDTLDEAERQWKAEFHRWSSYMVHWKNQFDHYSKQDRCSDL

Human OAT3 = Human OAT3 (Homo sapiens, UniProt Q8TCC7)
Human OAT3, sequence (Q8TCC7 whole entry): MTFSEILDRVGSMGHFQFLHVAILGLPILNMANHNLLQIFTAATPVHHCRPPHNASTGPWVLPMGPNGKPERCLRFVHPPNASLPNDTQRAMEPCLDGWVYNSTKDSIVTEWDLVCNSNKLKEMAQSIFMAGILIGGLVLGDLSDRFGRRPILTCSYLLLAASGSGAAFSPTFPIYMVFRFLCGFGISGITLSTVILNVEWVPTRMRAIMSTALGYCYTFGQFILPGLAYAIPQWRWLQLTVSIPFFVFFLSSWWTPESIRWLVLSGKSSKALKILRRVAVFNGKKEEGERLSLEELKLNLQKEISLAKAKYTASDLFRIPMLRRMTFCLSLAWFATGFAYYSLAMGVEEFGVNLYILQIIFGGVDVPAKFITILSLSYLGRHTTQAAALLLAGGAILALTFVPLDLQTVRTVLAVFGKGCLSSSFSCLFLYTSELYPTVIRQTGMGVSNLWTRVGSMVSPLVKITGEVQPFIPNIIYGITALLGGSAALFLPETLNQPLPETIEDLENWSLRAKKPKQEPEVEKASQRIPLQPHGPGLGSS

[6] = system: HepG2 reporter cell lines; experiment: ToxProfiler cell stress assay; assay type: cell-based, human
[7] = system: hiPSCs differentiated into cardiomyocytes, hepatocytes, or neural rosettes; conditions: human
THRa = system: THRa; set-up: method as in ToxCast database; conditions: ref ToxCast database; cited from earlier work
thyroid pathway [8] = system: thyroid pathway; set-up: method as in ToxCast database; conditions: ref ToxCast database; cited from earlier work; remark: listed apart in the source

## O=C(O)c1ccccc1O [SA, salicylic acid]
Thyroid pathway [1]
  Thyroid pathway Reporter protein Antagonist: Call: Negative
In vitro
  Further metabolism in PHH: not metabolized further
In vitro; both sexes, human, hepatocytes, Half-life in PHH
  half-life at 20 µM: > 15.8 h
In vitro; both sexes, human, hepatocytes, In vitro intrinsic clearance (CLint, in vitro)
  hepatocyte CLint at 20 µM: ~0.9 µL/min/1e6 cells
In vitro; both, human, 240 min, 20 µM
  Further metabolism in PHH: not further metabolized
Estrogen receptor [2]
  Estrogen pathway Reporter protein Agonist: Call: Negative
Estrogen receptor [3]
  Estrogen pathway Dimerisation: Call: Negative
Androgen receptor [4]
  Androgen pathway Reporter protein Agonist: Call: Negative
Androgen receptor [5]
  Androgen pathway Dimerisation: Call: Negative
Acetylcholinesterase (h); 10 µM SA, two technical replicates
  inhibition at 10 µM: 25.4%
Acetylcholinesterase (h); 10 μM to 1 mM SA
  Inhibition of acetylcholinesterase, follow-up: ≤ 5%
Human OAT3
  Substrate of OAT3 (uptake): borderline substrate
[6]; ICAM1 (indicating inflammation), tested 10 μM to 10 mM
  PoD: 4,000 µM
[6]; seven reporters
  Stress pathway reporters activated: activated only ICAM1
[7]
  PoD: 500 µM
other
  Fraction unbound in the plasma (Fup): 3 to ∼20
THRa
  Thyroid pathway receptor binding (THRa): Call: Negative
Thyroid pathway [8]
  Thyroid pathway Reporter protein Agonist: Call: Negative
